Measured values reported in the Kinase Knowledgebase extract (Sharma et al. 2016).

Target: MAPK14 (human) (UniProt Q16539)
Assay: Inhibition of LPS Stimulated TNF-alpha Production in THP-1 Cells
Details: thp1

Sequence of MAPK14 (human) (Q16539 whole entry, looked up): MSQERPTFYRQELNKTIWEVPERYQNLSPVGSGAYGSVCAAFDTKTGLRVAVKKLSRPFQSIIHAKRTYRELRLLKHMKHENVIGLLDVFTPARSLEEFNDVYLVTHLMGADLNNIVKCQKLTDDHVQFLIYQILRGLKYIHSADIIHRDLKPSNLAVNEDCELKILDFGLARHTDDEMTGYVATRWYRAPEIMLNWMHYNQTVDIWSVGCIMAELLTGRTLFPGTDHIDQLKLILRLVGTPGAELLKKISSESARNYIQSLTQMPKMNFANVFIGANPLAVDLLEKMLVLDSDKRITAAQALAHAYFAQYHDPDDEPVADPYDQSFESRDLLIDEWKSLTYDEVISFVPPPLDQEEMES

SMILES	IC50 [nM]
CCc1nc(-c2ccc(Cl)cc2)c(-c2ccnc(NC(=O)c3ccccc3)c2)s1	15
Cc1cc(C)cc(-c2nc(N)sc2-c2ccnc(NCc3ccccc3)c2)c1	140
Cc1cccc(-c2nc(N)sc2-c2ccncc2)c1	46
CCc1nc(-c2cccc(Cl)c2)c(-c2ccnc(NC(C)=O)c2)s1	120
COc1ccc(-c2nc(NC(=O)c3cccnc3)sc2-c2ccnc(NC(=O)c3cccnc3)c2)cc1	26
Cc1cc(C)cc(-c2nc(N)sc2-c2ccnc(NC(=O)c3ccccc3)c2)c1	20
CCc1nc(-c2cccc(C)c2)c(-c2ccnc(NC(=O)c3ccsc3)c2)s1	5.9
CCC(=O)Nc1cc(-c2sc(-c3ccc(S(C)(=O)=O)cc3)nc2-c2cccc(Cl)c2)ccn1	21
COc1ccc(-c2nc(N)sc2-c2ccnc(NC(=O)c3ccccc3)c2)cc1	14
CCCc1nc(-c2cccc(C)c2)c(-c2ccnc(N)c2)s1	2
CCc1nc(-c2cccc(Cl)c2)c(-c2ccnc(NC3CCCCC3)c2)s1	55
CNc1nc(-c2ccc(OC)cc2)c(-c2ccncc2)s1	140
CNc1nc(-c2ccc(Cl)cc2)c(-c2ccncc2)s1	180
CCc1nc(-c2cccc(Cl)c2)c(-c2ccnc(N[C@@H](C)c3ccccc3)c2)s1	57
Cc1cccc(-c2nc(N(C)C(=O)c3ccc(C)nc3)sc2-c2ccnc(NC3CCCC3)c2)c1	82
